Laboratory results taken from patent US7141570B2, “N-aryl-2-oxazolidinone-5-carboxamides and their derivatives” (Pharmacia & Upjohn Company, priority 2002, dated 2006).
In brackets after ≈: the same amount, converted by molar mass.

Key:
Experiment in all cases: MIC, agar dilution
Type in all cases: cell-based
[1] = system: E. Faecium (EFAE 12712); details: Enterococcus faecium, E. Faecium 12712, overnight at 35° C.
Description: (§1) The in vitro MICs of test compounds were determined by a standard agar dilution method. A stock drug solution of each analog was prepared in the preferred solvent, usually DMSO:H2O (1:3). Serial 2-fold dilutions of each sample are made using 1.0 ml aliquots of sterile distilled water. To each 1.0 ml aliquot of drug was added 9 ml of molten Mueller Hinton agar medium. The drug-supplemented agar was mixed, poured into 15×100 mm petri dishes, and allowed to solidify and dry prior to inoculation.
(§2) Vials of each of the test organisms are maintained frozen in the vapor phase of a liquid nitrogen freezer. Test cultures are grown overnight at 35° C. on the medium appropriate for the organism. Colonies are harvested with a sterile swab, and cell suspensions are prepared in Trypticase Soy broth (TSB) to equal the turbidity of a 0.5 McFarland standard. A 1:20 dilution of each suspension was made in TSB. The plates containing the drug supplemented agar are inoculated with a 0.001 ml drop of the cell suspension using a Steers replicator, yielding approximately 10^4 to 10^5 cells per spot. The plates are incubated overnight at 35° C.
(§3) Following incubation the Minimum Inhibitory Concentration (MIC μg/ml), the lowest concentration of drug that inhibits visible growth of the organism, was read and recorded.

[2] = system: S. aureus (SAUR 9213); details: Staphylococcus aureus, S. aureus 9213, overnight at 35° C.
Description: as §1, §2, §3

[3] = system: S. pneumonia (SPNE 9912); details: S. pneumonia 9912, overnight at 35° C.
Description: as §1, §2, §3

[4] = system: H. influenzae (HINF 31810); details: Haemophilus influenzae, H. influenzae 31810, overnight at 35° C.
Description: as §1, §2, §3

[5] = system: S. aureus (SAUR 31583); details: Staphylococcus aureus, S. aureus 31583, overnight at 35° C.
Description: as §1, §2, §3

[6] = system: H. influenzae (HINF 30063); details: Haemophilus influenzae, H. influenzae 30063, overnight at 35° C.
Description: as §1, §2, §3

[7] = system: M. catarrhalis (MCAT 30607); details: Moraxella catarrhalis, M. catarrhalis 30607, overnight at 35° C.
Description: as §1, §2, §3

[8] = system: S. pyogenes (SPYO 152); details: Streptococcus pyogenes, S. pyogenes 152, overnight at 35° C.
Description: as §1, §2, §3

[9] = system: S. epidermidis (SEPI 30593); details: Staphylococcus epidermidis, S. epidermidis 30593, overnight at 35° C.
Description: as §1, §2, §3

[10] = system: E. Faecalis (EFAE 9217); details: Enterococcus faecalis, E. Faecalis 9217, overnight at 35° C.
Description: as §1, §2, §3

MIC [1] | MIC [2] | MIC [3] | MIC [4] | MIC [5] | MIC [6] | MIC [7] | MIC [8] | MIC [9] | MIC [10] | SMILES
8 µg/mL (≈ 15.2 µM) | 16 µg/mL (≈ 30.3 µM) | 0.5 µg/mL (≈ 0.948 µM) | 32 µg/mL (≈ 60.7 µM) | > 64 µg/mL | 64 µg/mL (≈ 121 µM) | 32 µg/mL (≈ 60.7 µM) | 0.5 µg/mL (≈ 0.948 µM) | 8 µg/mL (≈ 15.2 µM) | 8 µg/mL (≈ 15.2 µM) | CC(=O)NC[C@H]1CN(c2ccc(N3CCN(C(=O)COc4ccc(CN(C)C)cc4)CC3)c(F)c2)C(=O)O1 [Compound 14]
2 µg/mL (≈ 3.41 µM) | 4 µg/mL (≈ 6.83 µM) | 0.25 µg/mL (≈ 0.427 µM) | 32 µg/mL (≈ 54.6 µM) | 32 µg/mL (≈ 54.6 µM) | 32 µg/mL (≈ 54.6 µM) | 4 µg/mL (≈ 6.83 µM) | 0.25 µg/mL (≈ 0.427 µM) | 2 µg/mL (≈ 3.41 µM) | 2 µg/mL (≈ 3.41 µM) | CCC(=S)NC[C@H]1CN(c2ccc(N3CCN(C(=O)COc4ccc(CN(CC)CC)cc4)CC3)c(F)c2)C(=O)O1 [Compound 9]
8 µg/mL (≈ 14 µM) | 16 µg/mL (≈ 28.1 µM) | 1 µg/mL (≈ 1.76 µM) | 64 µg/mL (≈ 112 µM) | > 64 µg/mL | > 64 µg/mL | 64 µg/mL (≈ 112 µM) | 1 µg/mL (≈ 1.76 µM) | 8 µg/mL (≈ 14 µM) | 4 µg/mL (≈ 7.02 µM) | CC(=O)NC[C@H]1CN(c2ccc(N3CCN(C(=O)COc4ccc(CN5CCOCC5)cc4)CC3)c(F)c2)C(=O)O1 [Compound 19]
2 µg/mL (≈ 3.59 µM) | 8 µg/mL (≈ 14.3 µM) | 0.125 µg/mL (≈ 0.224 µM) | 16 µg/mL (≈ 28.7 µM) | 16 µg/mL (≈ 28.7 µM) | 16 µg/mL (≈ 28.7 µM) | 4 µg/mL (≈ 7.17 µM) | 0.25 µg/mL (≈ 0.448 µM) | 1 µg/mL (≈ 1.79 µM) | 1 µg/mL (≈ 1.79 µM) | CCC(=S)NC[C@H]1CN(c2ccc(N3CCN(C(=O)COc4ccc(CN(C)C)cc4)CC3)c(F)c2)C(=O)O1 [Compound 13]
